Our source for the Retention time, inhibition and GI50 values is ChEMBL document CHEMBL3997847, “Development of a novel near-infrared fluorescent theranostic combretastain A-4 analogue, YK-5-252, to target triple negative breast cancer” (Bioorg Med Chem, 2017).

Active and inactive are the calls of the source. No cut-off for these calls is given here.

Experiment [1] in a line: Retention time of the compound at 200 uM in presence of 50 mM GSH by HPLC analysis.
For experiment [2], the species on record is Homo sapiens. Kind of experiment: Inhibition of beta-tubulin polymerization in human MDA-MB-231 cells at 50 nM after 1 hr by NucBlue staining based immunofluorescence microscopic assay. Type of experiment: cell-based.
Experiment [3] has as its system MDA-MB-231. Kind of experiment: Growth inhibition of human MDA-MB-231 cells after 72 hrs by MTT assay. Type of experiment: cell-based. To be noted: MDA-MB-231, 72 h. In general terms: Tetrazolium assays rely on reduction of a dye to a coloured formazan, in cell work by metabolically active cells.

On to `N#CC(C#N)=C1C=C(/C=C/c2ccc(N)cc2)Oc2ccccc21`, for which the Retention time in experiment [1] was 8.6 min.
On to `COc1ccc(/C=C\c2cc(OC)c(OC)c(OC)c2)cc1O` [COMBRETASTATIN A4], for which, in experiment [1], the Retention time came out at 6.8 min. Besides, the inhibition entry in experiment [2] was “Active”. Also, the GI50 (usually the concentration that inhibits growth by half) in experiment [3] came to 2.81 nM.
